Laboratory results taken from patent US20240270736A1, “MACROCYCLIC HETEROCYCLES AND USES THEREOF” (Kumquat Biosciences Inc., priority 2022, published 2024).

Columns and labels:
Type in all cases: binding
[1] = molecular target: T1, KRAS G12V (Homo sapiens, UniProt P01116, G12V); assay: HTRF assay, interaction of KRAS G12V with SOS1; details: Ras::SOS1 interaction, read-out: Inhibition of KRAS G12V (IC50)
T1 construct: made in house; host or cells: E. coli, e.g. BL21 (DE3)
Description: (§1) This assay can be also used to assess a selective inhibition or reduction of signaling output of a mutant Ras protein relative to a wildtype, or relative to a different mutant Ras protein. For example, the equilibrium interaction of wildtype Kras or K-Ras mutant (e.g., wildtype or a mutant thereof) with SOS1 (e.g., hSOS1) can be assessed as a proxy or an indication for a subject compound's ability to bind and inhibit Ras protein. The HTRF assay detects from (i) a fluorescence resonance energy transfer (FRET) donor (e.g., antiGST-Europium) that is bound to GST-tagged K-Ras mutant to (ii) a FRET acceptor (e.g., anti-6His-XL665) bound to a His-tagged hSOS1.
(§2) The assay buffer can contain ˜5 mM HEPES pH 7.4, ˜150 mM NaCl, ˜ 1 mM DTT, 0.05% BSA and 0.0025% (v/v) Igepal. A Ras working solution is prepared in an assay buffer containing typically a suitable amount of the protein construct (e.g., GST-tagged K-Ras mutant) and the FRET donor (e.g., antiGST-Eu(K) from Cisbio, France). A SOS1 working solution is prepared in an assay buffer containing suitable amount of the protein construct (e.g., His-hSOS1) and the FRET acceptor (e.g., anti-6His-XL665 from Cisbio, France). A suitable amount of the protein construct will depend on the range of activity or range of IC50 values being detected or under investigation. For detecting an IC50 within a range of 500 nM, the protein constructs of the same range of molarity can be utilized.
(§3) A fixed volume of DMSO with or without test compound is transferred into a 384-well plate. Ras working solution is added to all wells of the test plate. SOS1 working solution is added to all wells except for those that are subsequently filled with inhibitor control solution. Upon incubation for about 10 minutes or longer, the fluorescence is measured with a M1000Pro plate reader (Tecan) using HTRF detection (excitation 337 nm, emission 1: 620 nm, emission 2: 665 nm). Compounds are tested in duplicate at different concentrations (for example, 10 μM, 2.5 μM, 0.63 μM, 0.16 μM, 0.04 μM, 0.01 μM test compound). The ratiometric data (i.e., emission 2 divided by emission 1) is used to calculate IC50 values against Ras using GraphPad Prism (GraphPad software). Signaling output measured in terms of IC50 values can be obtained and a ratio of IC50 against one mutant relative to another mutant can be calculated. For instance, a selective reduction of K-Ras G12D signaling output can be evidenced by a ratio greater than one. In particular, a selective reduction of K-Ras G12D signaling relative to K-Ras WT signaling is evidenced if the ratio of IC50 (against K-Ras WT) to IC50 (against K-Ras G12D) is greater than 1.

[2] = molecular target: T2, wildtype KRAS (Homo sapiens, UniProt P01116); assay: HTRF assay, interaction of wildtype KRAS with SOS1; details: Ras::SOS1 interaction, read-out: Inhibition of KRAS WT (IC50)
T2 construct: made in house; host or cells: E. coli, e.g. BL21 (DE3)
Description: as §1, §2, §3

[3] = molecular target: T3, KRAS G12D (Homo sapiens, UniProt P01116, G12D); assay: HTRF assay, interaction of KRAS G12D with SOS1; details: Ras::SOS1 interaction, read-out: Inhibition of KRAS G12D (IC50)
T3 construct: made in house; host or cells: E. coli, e.g. BL21 (DE3)
Description: as §1, §2, §3

Measured: IC50

T3 sequence (P01116 1-188 isoform P01116-2 G12D): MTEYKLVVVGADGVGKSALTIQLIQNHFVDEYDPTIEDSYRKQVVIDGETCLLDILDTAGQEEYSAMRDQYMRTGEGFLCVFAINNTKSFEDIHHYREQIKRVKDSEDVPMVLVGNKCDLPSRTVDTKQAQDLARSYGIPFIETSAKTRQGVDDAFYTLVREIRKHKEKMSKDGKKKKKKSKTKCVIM
T1 sequence (P01116 1-188 isoform P01116-2 G12V): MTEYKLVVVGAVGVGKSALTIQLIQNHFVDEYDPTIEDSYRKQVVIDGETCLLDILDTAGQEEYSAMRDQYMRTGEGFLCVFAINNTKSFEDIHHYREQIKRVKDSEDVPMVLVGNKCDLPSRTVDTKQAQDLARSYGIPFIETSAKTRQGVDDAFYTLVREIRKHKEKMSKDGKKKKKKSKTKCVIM
T2 sequence (P01116 1-188 isoform P01116-2): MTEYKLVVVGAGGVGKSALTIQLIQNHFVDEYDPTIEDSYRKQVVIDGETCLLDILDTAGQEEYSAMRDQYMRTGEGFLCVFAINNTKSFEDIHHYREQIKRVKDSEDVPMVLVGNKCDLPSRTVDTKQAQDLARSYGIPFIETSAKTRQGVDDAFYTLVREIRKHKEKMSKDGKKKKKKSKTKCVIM

CNCC1CCCCCN2CCOc3c(Cl)c(-c4ccc(F)c5sc(N)c(C#N)c45)c(F)c4nc(nc2c34)O1 (stereo not drawn) [Compound 133, 2-amino-4-(14-chloro-16-fluoro-4-((methylamino)methyl)-4,5,6,7,8,9,11,12-octahydro-2,17-(azeno)benzo[6,7][1,4]oxazepino[5,4-d][1]oxa[3,5]diazacycloundecin-15-yl)-7-fluorobenzo[b]thiophene-3-carbonitrile]
≤ 5 µM: all assays above

CN1CCC[C@H]1C1CCCCCCN2CCOc3c(Cl)c(-c4ccc(F)c5sc(N)c(C#N)c45)c(F)c4nc(nc2c34)O1 (stereo partly drawn) [Compound 138, 2-amino-4-(15-chloro-17-fluoro-4-((S)-1-methylpyrrolidin-2-yl)-5,6,7,8,9,10,12,13-octahydro-4H-2,18-(azeno)benzo[6,7][1,4]oxazepino[5,4-d][1]oxa[3,5]diazacyclododecin-16-yl)-7-fluorobenzo[b]thiophene-3-carbonitrile]
≤ 5 µM: all assays above

CNCC1C/C=C\CCN2CCOc3c(Cl)c(-c4ccc(F)c5sc(N)c(C#N)c45)c(F)c4nc(nc2c34)O1 (stereo not drawn) [Compound 141, (Z)-2-amino-4-(14-chloro-16-fluoro-4-((methylamino)methyl)-4,5,8,9,11,12-hexahydro-2,17-(azeno)benzo[6,7][1,4]oxazepino[5,4-d][1]oxa[3,5]diazacycloundecin-15-yl)-7-fluorobenzo[b]thiophene-3-carbonitrile]
≤ 5 µM: all assays above

CN1CCCOc2nc3c4c(c(Cl)c(-c5ccc(F)c6sc(N)c(C#N)c56)c(F)c4n2)OCCN3CCC1 [Compound 143, 2-amino-4-(15-chloro-17-fluoro-7-methyl-5,6,7,8,9,10,12,13-octahydro-4H-2,18-(azeno)benzo[6,7][1,4]oxazepino[5,4-d][1]oxa[3,5,9]triazacyclododecin-16-yl)-7-fluorobenzo[b]thiophene-3-carbonitrile]
≤ 5 µM: all assays above

CN(C)CC1CNC(=O)CN2CCOc3c(Cl)c(-c4ccc(F)c5sc(N)c(C#N)c45)c(F)c4nc(nc2c34)OC1 (stereo not drawn) [Compound 145, 2-amino-4-(14-chloro-5-((dimethylamino)methyl)-16-fluoro-8-oxo-4,5,6,7,8,9,11,12-octahydro-2,17-(azeno)benzo[6,7][1,4]oxazepino[5,4-d][1]oxa[3,5,8]triazacycloundecin-15-yl)-7-fluorobenzo[b]thiophene-3-carbonitrile]
≤ 5 µM: all assays above

CN1CCCCCN2CCOc3c(Cl)c(-c4ccc(F)c5sc(N)c(C#N)c45)c(F)c4nc(nc2c34)OCC2(CC2)C1 [Compound 149, 2-amino-4-(17′-chloro-19′-fluoro-7′-methyl-7′,8′,9′,10′,11′,12′,14′,15′-octahydro-4′H,6′H-spiro[cyclopropane-1,5′-[2,20](azeno)benzo[6,7][1,4]oxazepino[5,4-d][1]oxa[3,5,11]triazacyclotetradecin]-18′-yl)-7-fluorobenzo[b]thiophene-3-carbonitrile]
≤ 5 µM: all assays above

CN1CCCCCCN2CCOc3c(Cl)c(-c4ccc(F)c5sc(N)c(C#N)c45)c(F)c4nc(nc2c34)OCCC1 [Compound 153, 2-amino-4-(18-chloro-20-fluoro-7-methyl-4,5,6,7,8,9,10,11,12,13,15,16-dodecahydro-2,21-(azeno)benzo[6,7][1,4]oxazepino[5,4-d][1]oxa[3,5,12]triazacyclopentadecin-19-yl)-7-fluorobenzo[b]thiophene-3-carbonitrile]
≤ 5 µM: all assays above

CN(C)CC1CCCCCN2c3nc(nc4c(F)c(-c5ccc(F)c6sc(N)c(C#N)c56)c(Cl)c(c34)OC[C@@H]2C(F)F)O1 (stereo partly drawn) [Compound 156, 2-amino-4-((11R)-14-chloro-11-(difluoromethyl)-4-((dimethylamino)methyl)-16-fluoro-4,5,6,7,8,9,11,12-octahydro-2,17-(azeno)benzo[6,7][1,4]oxazepino[5,4-d][1]oxa[3,5]diazacycloundecin-15-yl)-7-fluorobenzo[b]thiophene-3-carbonitrile]
≤ 5 µM: all assays above

CNCC1CCCCCCN2CCOc3c(Cl)c(-c4ccc(F)c5sc(N)c(C#N)c45)c(F)c4nc(nc2c34)O1 (stereo not drawn) [Compound 157, 2-amino-4-(15-chloro-17-fluoro-4-((methylamino)methyl)-5,6,7,8,9,10,12,13-octahydro-4H-2,18-(azeno)benzo[6,7][1,4]oxazepino[5,4-d][1]oxa[3,5]diazacyclododecin-16-yl)-7-fluorobenzo[b]thiophene-3-carbonitrile]
≤ 5 µM: all assays above

CN(C)CC1CCNC(=O)CN2CCOc3c(Cl)c(-c4ccc(F)c5sc(N)c(C#N)c45)c(F)c4nc(nc2c34)O1 (stereo not drawn) [Compound 158, 2-amino-4-(14-chloro-4-((dimethylamino)methyl)-16-fluoro-8-oxo-4,5,6,7,8,9,11,12-octahydro-2,17-(azeno)benzo[6,7][1,4]oxazepino[5,4-d][1]oxa[3,5,8]triazacycloundecin-15-yl)-7-fluorobenzo[b]thiophene-3-carbonitrile]
≤ 5 µM: all assays above

CN1CCC[C@H]1[C@@H]1CC/C=C\CCN2CCOc3c(Cl)c(-c4ccc(F)c5sc(N)c(C#N)c45)c(F)c4nc(nc2c34)O1 [Compound 159, 2-amino-4-((4S,Z)-15-chloro-17-fluoro-4-((S)-1-methylpyrrolidin-2-yl)-5,6,9,10,12,13-hexahydro-4H-2,18-(azeno)benzo[6,7][1,4]oxazepino[5,4-d][1]oxa[3,5]diazacyclododecin-16-yl)-7-fluorobenzo[b]thiophene-3-carbonitrile]
≤ 5 µM: all assays above
